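A five-concentration, 48-hour dose response in 96-well plates underlies each endpoint, interpolated linearly between surrounding concentrations. TGI is the concentration that stops growth completely.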 Where a SMILES comes first, the peptide text is derived from it.

Consider 15 compounds from PubChem BioAssay (NCI).

Among the test systems are CAKI-1 renal; EKVX NSCLC; MALME-3M melanoma; SF-539 CNS; SN12C renal; SNB-75 CNS; SW-620 colon; TK-10 renal; UO-31 renal; BT-549 breast.
Common to all, as to experiment: growth of human tumour cells (NCI), 48 h

Turning to `Cc1ccccc1NC(=O)CC(=O)N1N=C(N2c3ccccc3Sc3ccccc32)CC1c1ccccc1` (stereo not drawn), the TGI in the assay on CAKI-1 renal, in the assay with EKVX NSCLC, in the assay on MALME-3M melanoma, in the assay on SF-539 CNS, in the assay on SN12C renal and in the assay on SNB-75 CNS was above 100 µM throughout. In addition, the TGI in the assay with SW-620 colon, in the assay on TK-10 renal and in the assay with UO-31 renal was above 100 µM in each case.

With `C/C(N=Nc1nc2ccccc2[nH]1)=C1/C=CC=CN1O`, the TGI in the assay on BT-549 breast, in the assay on CAKI-1 renal, with EKVX NSCLC, in the assay with MALME-3M melanoma, in the assay on SF-539 CNS and with SN12C renal was above 100 µM throughout. The TGI in the assay with SW-620 colon, in the assay on TK-10 renal and in the assay with UO-31 renal was above 100 µM each time.

For the compound `COC1CC(CC2CCC(C)C(C(C)C(=O)O)O2)OC2(OC(C)(C3CCC(C)(C4OC(C5OC(O)(CO)C(C)CC5C)CC4C)O3)CC2C)C1C` (stereo not drawn), the TGI in the assay with BT-549 breast worked out at 27.7 µM; in the assay on CAKI-1 renal, 38.3 µM; with EKVX NSCLC, 49.2 µM; in the assay on MALME-3M melanoma, 0.798 µM; in the assay on SF-539 CNS, 10.3 µM; in the assay with SN12C renal, 23.7 µM. The TGI with SNB-75 CNS worked out at 8.7 µM; in the assay on SW-620 colon it was 17.9 µM; in the assay on TK-10 renal it was 36.8 µM; with UO-31 renal, 33.8 µM.

Consider `CSCCC(NC(=O)OCc1ccccc1)P(=O)(O)c1ccccc1` (stereo not drawn), for which the TGI with CAKI-1 renal, in the assay on SN12C renal, in the assay with SNB-75 CNS, in the assay with SW-620 colon, with TK-10 renal and in the assay on UO-31 renal was above 100 µM throughout.

As for `CCC(C)C(NC(=O)C1CCCN1C(=O)C(CC(C)C)NC(=O)C(CC(C)C)NC(=O)C(N)CC(C)C)C(=O)NC(C(=O)NCC(=O)NC(CC(N)=O)C(=O)NC(CC(C)C)C(=O)NC(CC(C)C)C(=O)NC(CC(C)C)C(N)=O)C(C)C` (stereo not drawn) (H-LLLPIVGNLLL-NH2; configuration not given here), the TGI in the assay with BT-549 breast, with CAKI-1 renal, in the assay on EKVX NSCLC, with MALME-3M melanoma, in the assay on SF-539 CNS and in the assay on SN12C renal was above 50 µM throughout. The TGI with SW-620 colon, with TK-10 renal and in the assay with UO-31 renal was above 50 µM each time.

On to `CCCCCOC(=O)c1cc2cc(CCl)ccc2oc1=O`, for which the TGI with BT-549 breast is 40.6 µM; in the assay on CAKI-1 renal it was 6.3 µM; in the assay with EKVX NSCLC, 18.4 µM; in the assay with MALME-3M melanoma, 8.33 µM; with SF-539 CNS it was above 93.3 µM; with SN12C renal, 28.1 µM. Besides, the TGI was determined as 31.2 µM in the assay on SNB-75 CNS, 56.6 µM with SW-620 colon, 5.3 µM with TK-10 renal and 11.1 µM in the assay on UO-31 renal.

`O=C(O)C(O)C(O)C(O)C(=O)CO` (stereo not drawn): the TGI in the assay with BT-549 breast, in the assay with CAKI-1 renal, in the assay with EKVX NSCLC, in the assay on MALME-3M melanoma, in the assay with SF-539 CNS and in the assay with SN12C renal was above 100 µM in each case. Also, the TGI in the assay on SNB-75 CNS, in the assay with SW-620 colon, in the assay with TK-10 renal and in the assay with UO-31 renal was above 100 µM throughout.

Consider `Nc1ccc(-c2nc3cc(F)ccc3s2)cc1CO`, for which the TGI in the assay with BT-549 breast was 51.2 µM; with CAKI-1 renal, above 100 µM; in the assay on EKVX NSCLC, above 100 µM; with MALME-3M melanoma, above 100 µM; in the assay on SF-539 CNS it was 46.7 µM; in the assay with SN12C renal, above 100 µM. Moreover, the TGI in the assay with SNB-75 CNS was 36.8 µM; in the assay on SW-620 colon, above 100 µM; in the assay on UO-31 renal it was above 100 µM.

Take `Cc1nc2ncn3c(c-2c1Cc1ccccc1)NC=C(O)N3`: the TGI in the assay with BT-549 breast, with CAKI-1 renal, with EKVX NSCLC, with MALME-3M melanoma, in the assay with SF-539 CNS and with SN12C renal was above 100 µM throughout. Further, the TGI is 67.8 µM in the assay with SNB-75 CNS, above 100 µM in the assay with SW-620 colon, above 100 µM in the assay with TK-10 renal and above 100 µM in the assay with UO-31 renal.

As for `Nc1cc(-c2ccc(Cl)cc2)nn1-c1nc2ccccc2nc1-c1ccccc1`, the TGI in the assay on BT-549 breast, in the assay with CAKI-1 renal, in the assay on EKVX NSCLC, in the assay on MALME-3M melanoma, with SF-539 CNS and in the assay on SN12C renal was above 100 µM each time. Moreover, the results for the TGI with SNB-75 CNS, in the assay with SW-620 colon and with TK-10 renal were 64.9 µM, above 100 µM and above 100 µM, respectively.

In the case of `Cc1cnoc1NS(=O)(=O)c1ccc(Nc2nnc(/C=C/c3c(O)ccc4ccccc34)c(=O)n2N)cc1`, the TGI stood at 53.9 µM in the assay with BT-549 breast; 88.9 µM in the assay with CAKI-1 renal; 71.9 µM in the assay on EKVX NSCLC; 65.5 µM with MALME-3M melanoma; 95.3 µM in the assay on SN12C renal; 77 µM in the assay with SNB-75 CNS. In addition, the TGI in the assay with SW-620 colon and in the assay with UO-31 renal was above 100 µM in each case.

Take `COc1cc([C@@H]2c3cc4c(cc3[C@@H](c3c(O)cc(O)c5c3O[C@H](c3ccc(O)c(O)c3)[C@H](OC(=O)c3cc(O)c(O)c(O)c3)C5)[C@H]3COC(=O)[C@H]23)OCO4)cc(OC)c1OC`: the TGI is above 100 µM in the assay with BT-549 breast; above 96.6 µM in the assay on CAKI-1 renal; above 100 µM with EKVX NSCLC; above 100 µM in the assay on SF-539 CNS; above 100 µM in the assay on SN12C renal; above 100 µM with SNB-75 CNS. Moreover, the TGI with SW-620 colon and in the assay with TK-10 renal was above 100 µM in each case.

`CC(C)C1OC(=O)/C=C/C=C/C=C/C=C/C=C/CC(O)C(C)C(O)CC(O)CC(O)CC(O)CC(O)CC(O)CC(O)/C=C/C1C` (stereo not drawn): the TGI with EKVX NSCLC, with MALME-3M melanoma, with SF-539 CNS, in the assay with SNB-75 CNS, with SW-620 colon and in the assay on TK-10 renal was above 100 µM each time. In the assay with UO-31 renal, the TGI is above 100 µM.

In the case of `COC(=S)OC1CC(n2cnc3c(N)ncnc32)OC1CO[Si](C)(C)C(C)(C)C` (stereo not drawn), the TGI was 64.1 µM in the assay with BT-549 breast; 66.8 µM in the assay on MALME-3M melanoma; 48.6 µM in the assay with SN12C renal; above 100 µM in the assay with SW-620 colon; above 100 µM in the assay on TK-10 renal; 40.8 µM with UO-31 renal.

As for `CC(=O)Oc1ccc(CO)cc1OC(C)=O`, the TGI with CAKI-1 renal, in the assay with EKVX NSCLC, in the assay on MALME-3M melanoma, in the assay on SN12C renal, in the assay on SNB-75 CNS and with SW-620 colon was above 100 µM each time. Further, the TGI with TK-10 renal and with UO-31 renal was above 100 µM each time.
